{"source": "patent US10421989B2", "about": "“Methods and reagents for riboswitch analysis” (CORNELL UNIVERSITY, priority 2014, dated 2019)", "key": {"[1]": {"biological_target": "dye-labeled TPP riboswitch (WT/24-68)", "assay": "smFRET titration of TPP, high-FRET state occupancy", "type": "binding, E. coli", "settings": "TPP 0 to 100 μM, 2 mM Mg2+; fit y=ymax(x/x+Kd); read-out: estimated Kd (apparent dissociation constant)", "experimental": "FIG. 20. Former tpp The dye-labeled TPP riboswitch (WT/24-68) binds TPP with nanomolar affinity. The affinity of TPP for the WT/24-68 labeled construct was estimated by titrating TPP from 0 to 100 μM in the presence of 2 mM Mg^2+, and quantifying the change in population of fully folded riboswitch molecules (high-FRET state occupancy) as a function of TPP concentration using single-molecule FRET measurements. Shown (black squares) is the average high-FRET state occupancy value (total area under the curve) obtained by fitting population FRET histograms to three Gaussian distributions (low-, intermediate- and high-FRET) over three independent experiments. Each value was normalized to the percent high-FRET state occupancy observed at […]. […]\nsmFRET data were acquired using a prism-based total internal reflection microscope, where the biotinylated TPP riboswitch was surface immobilized within PEG-passivated, strepatividin-coated quartz microfluidic devices. {Dave R, et al 2009} The Cy3 fluorophore was directly illuminated under 1.5 kW cm^−2 intensity at 532 nm (Laser Quantum). […] Fluorescence data were acquired using MetaMorph acquisition software (Universal Imaging Corporation) at a rate of 66.7 frames per second (15 ms integration). Fluorescence trajectories were selected from the movie files for analysis using automated image analysis software coded in Matlab (The MathWorks). […]"}, "[2]": {"biological_target": "wild-type (A11AP) preQ1-II riboswitch aptamer construct", "assay": "2-aminopurine fluorescence titration of preQ1 binding, wild-type aptamer", "parameters": "species or system Streptococcus pneumoniae R6", "settings": "0.5 μM RNA, 50 mM KMOPS, 100 mM KCl, Mg2+, 25° C.; 2-aminopurine at position A11", "experimental": "(§1) FIG. 10. A11/2-Aminopurine (A11AP) fluorescence measurements of WT and ΔP3 preQ1-II riboswitch variants. (a) Secondary structure of the WT/A11AP (left) and ΔP3/A11AP (right) preQ1-II variant. (b) Qualitative fluorescence response upon Mg^2+ (4 mM) and subsequent preQ1 addition (10 μM) (λex=308 nm; detection at 372 nm). (c) Fluorescence emission spectra (λex=308 nm) from 320 to 480 nm for each preQ1 concentration. (d) Normalized 2AP fluorescence intensity plotted as a function of preQ1 concentrations, changes in fluorescence (F-F0) were normalized to the maximum fluorescence measured in the absence of ligands. […]\n(§2) Experiments were measured on a Cary Eclipse spectrophotometer (Varian) equipped with a peltier block and a magnetic stirring device. […] Spectra were recorded from 320 to 500 nm with excitation wavelength 308 nm and scan rate of 120 nm/min. The apparent binding constants KD were determined by following the increase in fluorescence after each titration step via integration of the area between 330 and 450 nm. Changes in fluorescence (F-F0) were normalized to the maximum fluorescence measured in the absence of ligand. Measurements for each titration step was repeated at least two times and the mean of the normalized fluorescence intensity was plotted against ligand concentration. The final KD value is the arithmetic mean, determined from two to three independent titration experiments."}, "[3]": {"biological_target": "truncated (ΔP3/A11AP) preQ1-II riboswitch aptamer construct", "assay": "2-aminopurine fluorescence titration of preQ1 binding, truncated aptamer", "parameters": "species or system Streptococcus pneumoniae R6", "experimental": "as §1, §2"}}, "note": "Several values for one entry are separate records, joined by “and”; a condition that tells them apart may be missing. Equal values may be shown once."}
{"smiles": "Cc1ncc(C[n+]2csc(CCO[P@](=O)(O)OP(=O)(O)O)c2C)c(N)n1", "note": "[TPP, thiamine pyrophosphate]", "values": [{"measurement": "Kd", "setting": "[1]", "value": "~0.1 µM and 0.115 µM"}]}
{"smiles": "NCC1C=Nc2nc(N)[nH]c(=O)c21", "note": "(stereo not shown) [preQ1, 7-aminomethyl-7-deazaguanine]", "values": [{"measurement": "Kd", "setting": "[2]", "value": "0.43 ± 0.01", "unit": "µM"}, {"measurement": "Kd", "setting": "[3]; 0.5 μM RNA, 50 mM KMOPS, 100 mM KCl, Mg2+, 25° C., 2-aminopurine at position A11", "value": "4.2 ± 0.1", "unit": "µM"}, {"measurement": "decrease in affinity compared to the wild-type (A11AP) aptamer construct", "setting": "[3]; truncated construct vs wild-type", "value": 10, "unit": "fold"}]}
